Assay results published in patent publication US20250263408A1 (Uniquest Pty Ltd, priority 2022, published 2025).

Columns and labels:
[1] = tested on: Ba/F3-WT (wild type) cells; assay: Ba/F3 Proliferation Assay, Ba/F3-WT (wild type) cells with mIL-3 (Resazurin); type: cell-based; settings: Mus musculus, BaF3, 48 h, Ba/F3-WT cells +mIL-3, 48-hour incubation
Ba/F3-Syk cells = biological target: T1, Ba/F3-Syk cells (Homo sapiens, UniProt P43405); assay: Ba/F3 Proliferation Assay, Ba/F3-Syk cells (Resazurin); type: cell-based; settings: 48-hour incubation
T1 construct: fused on or other part: Possible but unprinted fusion partner: TEL (ETV6), the usual partner for Ba/F3 lines transformed by Syk; Nothing on a partner is printed

Syk = biological target: T2, Syk (Homo sapiens, UniProt P43405); assay: Syk Biochemical Assay (ADP-Glo luminescence); settings: ATP 40 μM final, 60 minutes, read-out: SYK Biochem IC50
T2 construct: purchased Promega
Experimental: Compounds were serially diluted in 100% DMSO, prior to an intermediate dilution in water. In a low volume white 384-well Proxiplate (Perkin Elmer), 1 μL of compound (0.4% final DMSO) was added to 3 μL of 10 ng/well Syk (Promega) and 0.2 mg/mL Poly-E4Y1 substrate (Promega) in assay buffer (final 40 mM Tris-HCl pH 7.4, 20 mM MgCl2, 0.1 mg/mL BSA) for 5 minutes. The reaction was initiated by addition of 1 μL of ATP (40 μM final) and allowed to proceed for 60 minutes at room temperature. The reaction was terminated by addition of 5 μL of ADP-Glo Reagent Mix (Promega) containing 1 mM MgCl2 for 45 minutes at room temperature. 10 μL of Kinase Detection Reagent (Promega) was added and incubated for 10 minutes at room temperature, before luminescence was measured using an Ensight Multimode Plate Reader (Perkin Elmer).

EC50 [1] | EC50 (Ba/F3-Syk cells) | IC50 (Syk) | Compound
2870 nM | 20.6 nM | 26.4 nM | CC(C)(C)n1cc(-c2cc3ncccc3c(OC[C@@H]3CNCC4(CC4)O3)n2)cn1 [Compound 2.63, 7-(1-tert-butyl-1H-pyrazol-4-yl)-5-{[(5S)-4-oxa-7-azaspiro[2.5]octan-5-yl]methoxy}-1,6-naphthyridine]
> 10000 nM | 13.5 nM | 30.1 nM | CC(C)(C)n1ccc(-c2cc3ncccc3c(OC[C@@H]3CNCCCO3)n2)c1 [Compound 2.69, 7-(1-tert-butyl-1H-pyrrol-3-yl)-5-{[(2S)-1,4-oxazepan-2-yl]methoxy}-1,6-naphthyridine]
846 nM | 18.6 nM | 28.3 nM | CC(C)[C@@H]1CNC[C@@H](COc2nc(-c3cnn(C(C)(C)C)c3)cc3ncccc23)O1 [Compound 2.98, 7-(1-tert-butyl-1H-pyrazol-4-yl)-5-{[(2S,6R)-6-(propan-2-yl)morpholin-2-yl]methoxy}-1,6-naphthyridine]
1760 nM | 355 nM | 130 nM | Cn1cc(-c2cc3ncccc3c(OC[C@H]3CNCCO3)n2)cn1 [Compound 2.2, 7-(1-methyl-1H-pyrazol-4-yl)-5-{[(2R)-morpholin-2-yl]methoxy}-1,6-naphthyridine]
1500 nM | 135 nM | 128 nM | C[C@H]1CNC[C@@H](COc2nc(-c3cnn(C)c3)cc3ncccc23)O1 (relative stereo) [Compound 2.24, 7-(1-methyl-1H-pyrazol-4-yl)-5-{[(rel-2S,6S)-6-methylmorpholin-2-yl]methoxy}-1,6-naphthyridine]
2780 nM | 198 nM | 68.5 nM | Cc1ccc(-c2cc3ncccc3c(OC[C@@H]3CNCCO3)n2)s1 [Compound 2.19, 7-(5-methylthiophen-2-yl)-5-{[(2S)-morpholin-2-yl]methoxy}-1,6-naphthyridine]
1380 nM | 233 nM | 35 nM | CC(C)(C)n1cc(-c2cc3ncccc3c(OC[C@@H]3CNC[C@@H](C(F)(F)F)O3)n2)cn1 [Compound 13.14, 7-(1-tert-butyl-1H-pyrazol-4-yl)-5-{[(2S,6S)-6-(trifluoromethyl)morpholin-2-yl]methoxy}-1,6-naphthyridine]
2370 nM | 23.5 nM | 11.8 nM | CC1(C)CNC[C@@H](COc2cc(-c3cnn(C(C)(C)C)c3)cc3ncccc23)O1 [Compound 3.2, 7-(1-tert-butyl-1H-pyrazol-4-yl)-5-{[(2S)-6,6-dimethylmorpholin-2-yl]methoxy} quinoline]
2140 nM | 63 nM | 14.2 nM | FC(F)Cn1ccc(-c2cc3ncccc3c(OC[C@@H]3CNCCO3)n2)c1 [Compound 6.5, 7-[1-(2,2-difluoroethyl)-1H-pyrrol-3-yl]-5-{[(2S)-morpholin-2-yl]methoxy}-1,6-naphthyridine]
1250 nM | 92.8 nM | 50.8 nM | Cn1cc(-c2cc3ncccc3c(OCC3CNCCO3)n2)cn1 (stereo not drawn) [Compound 2.1, 7-(1-methyl-1H-pyrazol-4-yl)-5-[(morpholin-2-yl)methoxy]-1,6-naphthyridine]
934 nM | 37.6 nM | 12.8 nM | CC(C)n1cc(-c2cc3ncccc3c(OC[C@@H]3CNCCO3)n2)cn1 [Compound 2.7, 5-{[(2S)-morpholin-2-yl]methoxy}-7-[1-(propan-2-yl)-1H-pyrazol-4-yl]-1,6-naphthyridine]
2220 nM | 51.8 nM | 43.7 nM | Cn1ccc(-c2cc(OC[C@@H]3CNCC4(CC4)O3)c3cccnc3c2)c1 [Compound 3.17, 7-(1-methyl-1H-pyrrol-3-yl)-5-{[(5S)-4-oxa-7-azaspiro[2.5]octan-5-yl]methoxy}quinoline]
> 10000 nM | 493 nM | 222 nM | FC(F)(F)n1cc(-c2cc3ncccc3c(OC[C@@H]3CNCCO3)n2)cn1 [Compound 2.16, 5-{[(2S)-morpholin-2-yl]methoxy}-7-[1-(trifluoromethyl)-1H-pyrazol-4-yl]-1,6-naphthyridine]
1780 nM | 41.8 nM | 16.3 nM | CC(C)(C)n1cc(-c2cc3ncccc3c(OC[C@@H]3CNC[C@H](C(F)(F)F)O3)n2)cn1 [Compound 13.13, 7-(1-tert-butyl-1H-pyrazol-4-yl)-5-([(2S,6R)-6-(trifluoromethyl)morpholin-2-yl]methoxy}-1,6-naphthyridine]
2100 nM | 28.4 nM | 55.9 nM | COCCn1ccc(-c2cc3ncccc3c(OC[C@@H]3CNCC4(CC4)O3)n2)c1 [Compound 6.23, 7-[1-(2-methoxyethyl)-1H-pyrrol-3-yl]-5-{[(5S)-4-oxa-7-azaspiro[2.5]octan-5-yl]methoxy}-1,6-naphthyridine]
833 nM | 5.6 nM | 5.7 nM | CC(C)n1ccc(-c2cc(OC[C@@H]3CNCC(C)(C)O3)c3nccnc3c2)c1 [Compound 8.3, 5-{[(2S)-6,6-dimethylmorpholin-2-yl]methoxy}-7-[1-(propan-2-yl)-1H-pyrrol-3-yl]quinoxaline]
1860 nM | 78.2 nM | 47.2 nM | Cc1cc(-c2cc3ncccc3c(OC[C@@H]3CNCCO3)n2)cs1 [Compound 2.18, 7-(5-methylthiophen-3-yl)-5-{[(2S)-morpholin-2-yl]methoxy}-1,6-naphthyridine]
628 nM | 25.4 nM | 40 nM | CC(C)(C)[C@@H]1CNC[C@@H](COc2nc(-c3cnn(C(C)(C)C)c3)cc3ncccc23)O1 [Compound 2.101, 7-(1-tert-butyl-1H-pyrazol-4-yl)-5-{[(2S,6R)-6-tert-butylmorpholin-2-yl]methoxy}-1,6-naphthyridine]
551 nM | 7.4 nM | 14.7 nM | CC(C)n1cc(-c2cc(OC[C@@H]3CNCC4(CCC4)O3)c3cccnc3c2)cn1 [Compound 11.8, 5-{[(6S)-5-oxa-8-azaspiro[3.5]nonan-6-yl]methoxy}-7-[1-(propan-2-yl)-1H-pyrazol-4-yl]quinoline]
2700 nM | 61 nM | 82.8 nM | c1cnc2cc(-c3cnn(C4CC4)c3)nc(OC[C@@H]3CNCCO3)c2c1 [Compound 2.21, 7-(1-cyclopropyl-1H-pyrazol-4-yl)-5-{[(2S)-morpholin-2-yl]methoxy}-1,6-naphthyridine]
2670 nM | 6.1 nM | 12.9 nM | Cc1ccnc2cc(-c3cnn(C(C)(C)C)c3)nc(OC[C@@H]3CNCC(C)(C)O3)c12 (stereo in doubt) [Compound 14.6, 7-(1-tert-butyl-1H-pyrazol-4-yl)-5-[(6,6-dimethylmorpholin-2-yl)methoxy]-4-methyl-1,6-naphthyridine]
3050 nM | 47.1 nM | 71 nM | CC(C)(C)n1cc(-c2cc3ncccc3c(OC[C@@H]3CNCCCO3)n2)cn1 [Compound 2.49, 7-(1-tert-butyl-1H-pyrazol-4-yl)-5-{[(2S)-1,4-oxazepan-2-yl]methoxy}-1,6-naphthyridine]
9830 nM | 57.4 nM | 22.1 nM | Cn1ccc(-c2cc3ncccc3c(OC[C@@H]3CNCCCO3)n2)c1 [Compound 2.52, 7-(1-methyl-1H-pyrrol-3-yl)-5-{[(2S)-1,4-oxazepan-2-yl]methoxy}-1,6-naphthyridine]
735 nM | 4.5 nM | 5.2 nM | CC1(C)CNC[C@@H](COc2cc(-c3ccn(CC(F)F)c3)cc3nccnc23)O1 [Compound 8.5, 7-[1-(2,2-difluoroethyl)-1H-pyrrol-3-yl]-5-{[(2S)-6,6-dimethylmorpholin-2-yl]methoxy}quinoxaline]
2760 nM | 44.8 nM | 17.6 nM | C[C@@H]1CNC[C@@H](COc2nc(-c3cnn(C)c3)cc3ncccc23)O1 [Compound 2.76, 7-(1-methyl-1H-pyrazol-4-yl)-5-{[(2S,6R)-6-methylmorpholin-2-yl]methoxy}-1,6-naphthyridine]
1560 nM | 23.3 nM | 29.3 nM | c1cnc2cc(-c3ccn(C4COC4)c3)cc(OC[C@@H]3CNCCO3)c2c1 [Compound 7.12, 5-{[(2S)-morpholin-2-yl]methoxy}-7-[1-(oxetan-3-yl)-1H-pyrrol-3-yl]quinoline]
3880 nM | 44.7 nM | 36.7 nM | CC(C)n1ccc(-c2cc(OC[C@@H]3CNCCCO3)c3cccnc3c2)c1 [Compound 7.10, 5-{[(2S)-1,4-oxazepan-2-yl]methoxy}-7-[1-(propan-2-yl)-1H-pyrrol-3-yl]quinoline]
703 nM | 1.3 nM | 5.1 nM | C[C@@H]1CNC[C@@H](COc2cc(-c3ccn(C(C)(C)C)c3)cc3nccnc23)O1 [Compound 12.8, 7-(1-tert-butyl-1H-pyrrol-3-yl)-5-{[(2S,6R)-6-methylmorpholin-2-yl]methoxy}quinoxaline]
2260 nM | 28.2 nM | 16.4 nM | C[C@@H]1CNC[C@@H](COc2cc(-c3ccn(C)c3)cc3ncccc23)O1 [Compound 3.24, 7-(1-methyl-1H-pyrrol-3-yl)-5-{[(2S,6R)-6-methylmorpholin-2-yl]methoxy}quinoline]
